Measurements as given in patent US20250082766A1, “TREATMENT OF BRAIN TUMORS BY TARGETING THE CHOLESTEROL PATHWAY IN ASTROCYES” (Ramot at Tel-Aviv University Ltd., priority 2022, published 2025).

Experiments:
[1] = target: cholesterol transporter ABCA1 (Homo sapiens, UniProt O95477); conditions: cited from earlier work
GL261 glioma (GBM) = experiment: Primary GBM model: GL261 intracranially implanted mice treated with Probucol; assay type: in vivo, mouse; conditions: summary statement on ABCA1 inhibitors; FIGS. 16A-E
Description: (FIG. 16A) Illustration of the experimental design for primary and recurrent GBM models. (FIGS. 16B-D) WT mice were intracranially (IC) implanted with GL261 cells. Tumor-bearing mice were treated daily, starting at day 10, with Probucol (30 mg/kg) or vehicle. (FIG. 16B) Tumor growth curve as determined by IVIS, (FIG. 16C) mice weight loss, and (FIG. 16D) Kaplan-Meier curves assess overall survival. p-value by Two-way ANOVA. Data represent Mean±SEM, 8 mice/group. (FIG. 16E) Illustration of the predicted effects of probucol or glyburide in the different models/disease stages.
For intracranial mouse glioma, mice were anesthetized, positioned in a Stereotaxic Alignment System, and injected with 1.5×10^4 GL261 or CT-2A cells in 2 μl of DMEM. Injections were made to the right frontal lobe, approximately 2.5 mm lateral and 0.1 mm caudal from bregma at a depth of 3 mm. In-vivo bioluminescence imaging, following XenoLight D-luciferin Potassium Salt administration (150 mg/kg) i.p. administration, was determined using IVIS Spectrum system (PerkinElmer). Ganciclovir (GCV, Cymevene, Roche #SAP-10051872; 25 mg/kg), Diphtheria-toxin (DT, Sigma-Aldrich, #D0564; 1100 ng/mice), or vehicle control (PBS) were administered daily following tumor establishment (day 10), as previously described (Mayo, L., et al. Nat Med (2014) 20: 1147-1156). CD8^+ T cell depletion was performed using an anti-CD8 monoclonal antibody ([…], Bioxcell) or an isotype control monoclonal antibody (2A3, Bioxcell), as previously described (Takenaka, M. C. et al. Control of tumor-associated macrophages and T cells in glioblastoma via AHR and CD39. Nat Neurosci 22, 729-740 (2019)). GBM-bearing mice were intraperitoneally injected (0.1 mg/mouse) with an anti-CD8 or an isotype control mAbs, 1 day before, and 7 days after, GCV administration. CD8 T-cell depletion was validated by FACS analysis using a Sony SH800 FACS instrument (Sony Biotechnology). Data analysis was performed using FlowJo v10 (TreeStar, USA). The following reagents were used for analysis: anti-CD45 (1:100; 30-F11, Biolegend, #103106), anti-CD3[…] (1:50; 145-2C11, Biolegend #100335), and anti-CD8a (1:100; 53-6.7, Biolegend, #100765).
To investigate this hypothesis, C57Bl/6 mice are implanted with GFP^+ luciferase-expressing glioma cells (GL261 or CT-2A), using two subtype models—primary or recurrent GBM/brain tumor resection (as illustrated in FIG. 16A), and are treated daily with probucol, glyburide, or vehicle control, with or without a potent statin (e.g., simvastatin as shown in FIG. 15A). The dosage of the different drugs is optimized based on FDA guidelines for conversions from human-accepted dosages (Table 5 below).
In the primary GBM model (pGBM)—10 days after tumor implantation, the mice are treated with cholesterol-lowering drugs (FIG. 16A). In the recurrent GBM model (rGBM), 12-14 days after inoculation of the mice with the tumor cells, the visible tumor(s) are surgically removed, based on GFP expression, under a stereoscope. The mice are then allowed to recover for a week and then are treated with cholesterol-lowering drugs (FIG. 16A). Of note, tumor formation or recurrence is monitored by bioluminescence (BLI) signals from the tumor cells on in-vivo imaging system (IVIS) spectrum and quantified with Living Image software. Mice are monitored for tumor growth, peritumoral brain edema formation, and mouse survival until the experimental endpoint (extreme lethargy or body weight reduction of greater than 20%), or are euthanized seven days after treatment with the cholesterol-lowering drugs to assess tumor burden, angiogenesis, BBB stability, and immunomodulatory activity in-situ. Tumor volume is evaluated in-vivo by determining tumor BLI, and by histopathology analysis postmortem. Peritumoral brain edema is evaluated in-vivo using IVISense™ Edema (Superhance™ 680) fluorescent probe. […]

[2] = tested on: murine GL261 glioma cells co-cultured with astrocytes; experiment: LPDS-induced glioma cell death in astrocyte-glioma co-cultures with cholesterol-lowering drugs, Annexin-V assay; assay type: cell-based, mouse; conditions: cholesterol-deprived (LPDS) astrocyte-GL261 co-cultures, FIGS. 15A-D, n=2
Text: FIGS. 15A-D illustrate that cholesterol-lowering drugs inhibit astrocyte-mediated rescue of glioma cells from cholesterol deprivation. Analysis of LPDS-induced glioma cell death, co-cultured with astrocytes, in the presence of absence of cholesterol-lowering drugs, by Annexin-V assay. (FIGS. 15A-C) Representative flow cytometry plots of murine GL261 treated with statins (FIG. 15A) or ABCA1 inhibitors Probucol (FIG. 15B), and Glyburide (FIG. 15C), and this quantification analyses (FIG. 15D). n=2 biologically independent experiments.
Moreover, statins and probucol, or glyburide, target different nodes in the cholesterol efflux mechanism (synthesis and extracellular export). Therefore, the present inventor further tests whether the combinations of the two drug groups would have a synergistic effect on glioma viability.

LDLR = LDLR levels (immunoblot) in GL261 cells treated with conditioned media of PCSK9-transduced astrocytes; assay type: cell-based, mouse; conditions: astrocyte-conditioned media (wild type PCSK9-encoding vs empty lentivirus), 24 hours; FIG. 21B
Description: FIGS. 21A-D illustrate that PCSK9 overexpression in the cancer microenvironment halts glioma progression. (FIG. 21A) Box plot analysis of TCGA gene expression for PCSK9 in normal (Norm; n=207), GBM patients (n=163), or low-grade glioma (LGG, n=518). n represents the number of patients per group. (FIG. 21B) Astrocytes were transduced with wild type PCSK9-encoding or empty lentivirus, and 24 hours later, the media was collected and transferred to glioma cells. Representative immunoblot analyses comparing LDLR and ACTIN levels in GL261 glioma cells treated with the astrocyte-conditioned media for 24 hours. (n=2 biologically independent experiments). […] PCSK9-encoding or empty lentiviruses were injected into the TME of GL261-bearing mice 9 and 15 days after tumor implantation. (FIG. 21C) Analysis of tumor size, based on tumor bioluminescence. (FIG. 21D) Kaplan-Meier curves assessing overall survival of these groups. Data are representative of two independent experiments with n=6 mice/group. Data are shown as mean±s.e.m. P values were determined by two-sided Student's t-tests (FIG. 21A), two-way ANOVA (FIG. 21C), or Log rank (Mantel-Cox) test (FIG. 21D). *P<0.05, **P<0.01, ***P<0.001.
Cells were lysed in RIPA buffer supplemented with protease inhibitors (Cell Signaling). […] Quantification was done using Image Studio Lite software version 5.2 (LI-COR Biosciences).

Sequence of cholesterol transporter ABCA1 (O95477 whole entry): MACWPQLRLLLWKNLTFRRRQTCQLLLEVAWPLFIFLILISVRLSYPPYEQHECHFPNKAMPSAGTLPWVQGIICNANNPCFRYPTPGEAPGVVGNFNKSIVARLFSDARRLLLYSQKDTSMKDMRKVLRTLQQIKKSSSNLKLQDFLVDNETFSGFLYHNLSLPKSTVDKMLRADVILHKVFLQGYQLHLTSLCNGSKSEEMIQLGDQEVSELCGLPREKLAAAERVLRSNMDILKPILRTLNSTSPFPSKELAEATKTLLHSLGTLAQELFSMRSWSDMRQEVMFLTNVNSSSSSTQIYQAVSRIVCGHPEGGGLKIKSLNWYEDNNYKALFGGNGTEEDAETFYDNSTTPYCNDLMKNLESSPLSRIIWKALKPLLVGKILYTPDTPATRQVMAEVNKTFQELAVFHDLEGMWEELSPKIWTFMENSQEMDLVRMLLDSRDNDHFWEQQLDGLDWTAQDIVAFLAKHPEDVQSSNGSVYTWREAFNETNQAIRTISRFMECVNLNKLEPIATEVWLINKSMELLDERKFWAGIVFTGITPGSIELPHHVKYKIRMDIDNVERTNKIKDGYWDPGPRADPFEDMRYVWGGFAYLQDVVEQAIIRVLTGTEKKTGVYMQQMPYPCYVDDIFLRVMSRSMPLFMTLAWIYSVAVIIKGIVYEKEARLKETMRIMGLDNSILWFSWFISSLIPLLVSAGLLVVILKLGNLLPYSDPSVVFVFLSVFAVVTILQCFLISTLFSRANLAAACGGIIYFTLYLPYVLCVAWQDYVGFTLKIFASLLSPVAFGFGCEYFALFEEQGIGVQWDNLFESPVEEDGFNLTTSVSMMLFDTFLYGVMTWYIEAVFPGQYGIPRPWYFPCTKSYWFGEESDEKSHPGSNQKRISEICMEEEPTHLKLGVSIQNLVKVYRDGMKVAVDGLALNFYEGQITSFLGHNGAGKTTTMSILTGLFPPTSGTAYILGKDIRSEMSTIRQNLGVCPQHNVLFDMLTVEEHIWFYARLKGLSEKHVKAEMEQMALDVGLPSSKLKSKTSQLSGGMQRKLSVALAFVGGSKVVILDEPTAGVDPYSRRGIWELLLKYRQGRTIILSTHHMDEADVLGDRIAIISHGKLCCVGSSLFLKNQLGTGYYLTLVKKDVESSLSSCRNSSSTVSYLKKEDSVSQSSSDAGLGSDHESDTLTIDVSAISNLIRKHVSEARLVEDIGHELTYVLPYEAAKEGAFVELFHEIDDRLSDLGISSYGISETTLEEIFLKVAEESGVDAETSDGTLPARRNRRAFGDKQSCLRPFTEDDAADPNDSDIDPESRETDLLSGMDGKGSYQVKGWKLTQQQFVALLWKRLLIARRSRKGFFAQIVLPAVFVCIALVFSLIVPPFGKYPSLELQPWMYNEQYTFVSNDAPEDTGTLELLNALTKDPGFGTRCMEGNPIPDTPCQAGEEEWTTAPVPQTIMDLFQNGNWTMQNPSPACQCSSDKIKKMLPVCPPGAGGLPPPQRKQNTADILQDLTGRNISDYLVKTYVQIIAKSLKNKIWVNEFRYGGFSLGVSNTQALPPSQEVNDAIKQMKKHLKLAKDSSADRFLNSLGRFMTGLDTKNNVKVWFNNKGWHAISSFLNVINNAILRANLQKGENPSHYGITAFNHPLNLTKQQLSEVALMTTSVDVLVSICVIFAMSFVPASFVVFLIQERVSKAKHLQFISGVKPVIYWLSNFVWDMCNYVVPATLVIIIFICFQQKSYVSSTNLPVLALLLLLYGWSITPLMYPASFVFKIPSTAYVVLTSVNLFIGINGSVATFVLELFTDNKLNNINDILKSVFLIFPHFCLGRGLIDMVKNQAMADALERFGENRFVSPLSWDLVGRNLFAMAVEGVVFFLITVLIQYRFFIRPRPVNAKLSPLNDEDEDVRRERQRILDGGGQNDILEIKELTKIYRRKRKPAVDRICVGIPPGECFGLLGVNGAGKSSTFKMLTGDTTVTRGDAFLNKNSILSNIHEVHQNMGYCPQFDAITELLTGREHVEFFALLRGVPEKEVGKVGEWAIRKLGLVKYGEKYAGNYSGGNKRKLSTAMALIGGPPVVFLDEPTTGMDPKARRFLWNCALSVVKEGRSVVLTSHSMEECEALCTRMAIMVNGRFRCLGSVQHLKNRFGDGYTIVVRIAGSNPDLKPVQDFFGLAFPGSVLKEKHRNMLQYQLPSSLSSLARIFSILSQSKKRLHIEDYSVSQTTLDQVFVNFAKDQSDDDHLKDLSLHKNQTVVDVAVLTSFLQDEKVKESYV

Row | Molecule | ABCA1 inhibitor potency [1] | survival of subjects having GBM in-vivo (GL261 glioma (GBM)) | tumor size of subjects having GBM in-vivo (GL261 glioma (GBM)) | weight loss of subjects having GBM in-vivo (GL261 glioma (GBM)) | attenuation of the astrocyte-dependent rescue of glioma cells from cholesterol deprivation (glioma cell death), relative efficiency [2] | levels of LDLR in GL261 glioma cells (LDLR)
1 | COc1ccc(Cl)cc1C(=O)NCCc1ccc(S(=O)(=O)NC(=O)NC2CCCCC2)cc1 [Glyburide] | potent | prolonging survival | decreasing tumor size | preventing weight loss | the most potent | –
2 | PCSK9: wild type PCSK9 secreted into astrocyte-conditioned medium by lentivirus-transduced astrocytes | – | – | – | – | – | decreased levels of LDLR
